Earlier results, collected in PMC10814857, “Functional Classification and Interaction Selectivity Landscape of the Human SH3 Domain Superfamily” (Cells, 2024).
Read-outs that look alike come from different tables or passages of the source.

Tests used:
NCK1-3 SH3 domain = conditions: NCK1-3, HSQC, Table S4; ref [64]; cited from earlier work
Protocol: (§1) page 6: […][…] […] PAK2 […] PXXXPR PXXXPR 1.05 ITC [34] TRSVI ITSN1-2 Synthetic […] Exceptional [W/F][R/W]xSx[A/ 53 ITC [29] peptide G][F/Y][L/V]xGP[ W/L] NCK1-2 N-WASP GP[…] … 147 HSQC [64] VA[…] 199 PLCG1 SOS1 AAPV[…] … 0.20mM SPR [75] AADS[…] 0.40mM AAES[…] 0.70mM AAIA[…] 0.28mM BAIAP2L1 EspFUR45 IPP[…] … 0.5 nM ITC [76] (IRTKS) 9 SORBS2- Synthetic […] Exceptional XRXGXAYLXYVX 38 ITC [29] 1 peptide Synthetic RL[…](L/P) ...

CRK-1 SH3 domain [1] = biological target: CRK-1 SH3 domain; design: method as in ref [71] (a number printed in a supplementary file, which may have a reference list of its own: not looked up in the article's list); conditions: CRK-1, SPR, Table S4; ref [71]; cited from earlier work
GRB2-1 SH3 domain = conditions: Table S4, cited from earlier work
Protocol: (§2) page 6: […] […] […] PAK2 […] PXXXPR PXXXPR 1.05 ITC [34] TRSVI ITSN1-2 Synthetic […] Exceptional [W/F][R/W]xSx[A/ 53 ITC [29] peptide G][F/Y][L/V]xGP[ W/L] NCK1-2 N-WASP GP[…] … 147 HSQC [64] VA[…] 199 PLCG1 SOS1 AAPV[…] … 0.20mM SPR [75] AADS[…] 0.40mM AAES[…] 0.70mM AAIA[…] 0.28mM BAIAP2L1 EspFUR45 IPP[…] … 0.5 nM ITC [76] (IRTKS) 9 SORBS2- Synthetic […] Exceptional XRXGXAYLXYVX 38 ITC [29] 1 peptide Synthetic RL[…](L/P) ...

SORBS2-1 SH3 domain = conditions: SORBS2-1, ITC, Table S4; ref [29]; cited from earlier work
Protocol: as §2

CRK-1 SH3 domain [2] = biological target: CRK-1 SH3 domain; design: method as in 3 sources, one per row (each row's own in cited_ref): ref [15] (a number printed in a supplementary file, which may have a reference list of its own: not looked up in the article's list) ||| ref [69] (a number printed in a supplementary file, which may have a reference list of its own: not looked up in the article's list) ||| ref [17] (a number printed in a supplementary file, which may have a reference list of its own: not looked up in the article's list); conditions: CRK-1, FL, Table S4, cited from earlier work
GRB2-2 SH3 domain = conditions: Table S4, cited from earlier work
Protocol: as §2

p85A SH3 domain = biological target: p85A SH3 domain; design: method as in ref [3] (a number printed in a supplementary file, which may have a reference list of its own: not looked up in the article's list); conditions: SPR, Table S4, ref [3]; cited from earlier work
[3] = biological target: NCF1-2 (p47phox) SH3 domain; design: method as in ref [14] (a number printed in a supplementary file, which may have a reference list of its own: not looked up in the article's list); conditions: FL, Table S4, ref [14]; cited from earlier work
STAC1 SH3 domain = conditions: STAC1, ITC, Table S4; ref [59]; cited from earlier work
Protocol: as §2

STAC2 SH3 domain = conditions: STAC2, ITC, Table S4; ref [59]; cited from earlier work
Protocol: as §2

NCK1-1 SH3 domain = conditions: NCK1-1, HSQC, Table S4; ref [64]; cited from earlier work
NCK1-2 SH3 domain = conditions: NCK1-2, HSQC, Table S4; ref [64]; cited from earlier work
Protocol: as §1

[4] = biological target: bPIX (ARHGEF7) SH3 domain; design: method as in 3 sources, one per row (each row's own in cited_ref): ref [33] (a number printed in a supplementary file, which may have a reference list of its own: not looked up in the article's list) ||| ref [60] (a number printed in a supplementary file, which may have a reference list of its own: not looked up in the article's list) ||| ref [34] (a number printed in a supplementary file, which may have a reference list of its own: not looked up in the article's list); conditions: ITC, cited from earlier work
ABL1 SH3 domain = biological target: ABL1 SH3 domain; design: method as in ref [67] (a number printed in a supplementary file, which may have a reference list of its own: not looked up in the article's list); conditions: ABL1, FL, Table S4; ref [67]; cited from earlier work
FYN SH3 domain = biological target: FYN SH3 domain; design: method as in ref [73] (a number printed in a supplementary file, which may have a reference list of its own: not looked up in the article's list); conditions: HSQC, Table S4, ref [73], cited from earlier work
SRC SH3 domain = biological target: SRC SH3 domain; design: method as in 3 sources, one per row (each row's own in cited_ref): ref [23] (a number printed in a supplementary file, which may have a reference list of its own: not looked up in the article's list) ||| ref [62] (a number printed in a supplementary file, which may have a reference list of its own: not looked up in the article's list) ||| ref [17] (a number printed in a supplementary file, which may have a reference list of its own: not looked up in the article's list); conditions: FL, cited from earlier work
PLCG1 SH3 domain = conditions: PLCG1, SPR, Table S4; ref [75]; cited from earlier work
Protocol: as §2

GRAP2-2 SH3 domain = conditions: GRAP2-2, ITC, Table S4, cited from earlier work
Protocol: as §2

EPS8L1 SH3 domain = biological target: EPS8L1 SH3 domain; design: method as in ref [7] (a number printed in a supplementary file, which may have a reference list of its own: not looked up in the article's list); conditions: EPS8L1, ITC, Table S4; ref [7]; cited from earlier work

VAPPPPPPPPPPPG [published N-WASP peptide]
Kd (NCK1-3 SH3 domain): > 1 µM

SLPGPLTPVAEGQEIGMNTETSGTSAREKELSPPPGLPSKIGSISRQSSL [published ST12 peptide]
Kd (CRK-1 SH3 domain [1]): 0.91 µM

VPPPVPPRRR [published SOS1 peptide]
Kd (GRB2-1 SH3 domain; GRB2-1, FL, ref [77]): 5.6 µM

LRTGEAYLRYVD [published synthetic peptide (SORBS2-1 ligand)]
Kd (SORBS2-1 SH3 domain): 38 µM

PPPVPPRRRR [published SOS1 peptide]
Kd (CRK-1 SH3 domain [2]; ref [15]): 5.2 µM
Kd (GRB2-1 SH3 domain; GRB2-1, FL, ref [15]): 3.5 µM

IQPPPVNRNLKPDRK [published Gab2b peptide]
Kd (GRB2-2 SH3 domain; GRB2-2, ITC, ref [48]): 17.4 µM

HSKYPLPPLPSL [published peptide PD1]
Kd (p85A SH3 domain): 120 µM

QPPSNPPPRPPAEAR [published p22phox peptide]
Kd [3]: 8.67 µM

PKLPPKTYKREH [published SOS1 peptide]
Kd (GRB2-2 SH3 domain; GRB2-2, NMR, ref [47]): 156 µM

EDEPEIPLSPRPRP [published CaV1.1 peptide]
Kd (STAC1 SH3 domain): 3.92 µM
Kd (STAC2 SH3 domain): 9.31 µM

DSPPAIPPRQPT [published SOS1 peptide]
Kd (GRB2-1 SH3 domain; GRB2-1, ITC, ref [79]): 55 µM

GPPPPPARGRGA [published N-WASP peptide]
Kd (NCK1-1 SH3 domain): > 1000 µM
Kd (NCK1-2 SH3 domain): 147 µM

PGPPPPPGLPSD [published N-WASP peptide]
Kd (NCK1-3 SH3 domain): > 1 µM

KPSRPPRPSRPPPPTPRRPAS [published Itch peptide]
Kd ([4]; Table S4, ref [33]): 1.59 µM

PPPALPPKKR [published C3G peptide]
Kd (CRK-1 SH3 domain [2]; ref [15]): 1.9 µM
Kd (CRK-1 SH3 domain [2]; ref [69]): 1.89 µM
Kd (GRB2-1 SH3 domain; GRB2-1, FL, ref [15]): 142 µM

APPPPPPSRGG [published N-WASP peptide]
Kd (NCK1-1 SH3 domain): > 1000 µM

APSYSPPPPP
Kd (ABL1 SH3 domain): 1.5 µM

KRISPPTPKPRPPR [published PI3K-p85a peptide]
Kd (FYN SH3 domain; unit mM in the cell): 0.003 mM

DVADVPPPLPLKGSVADYGNLMENQDLLGSPTPPPPPPHQRHLPPPLPSKT [published DOCK180 peptide]
Kd (CRK-1 SH3 domain [1]): 0.35 µM

SAPSGPPPPPPSVL [published N-WASP peptide]
Kd (NCK1-1 SH3 domain): > 1000 µM
Kd (NCK1-3 SH3 domain): > 1 µM

ESPPLLPPREPV [published SOS1 peptide]
Kd (GRB2-1 SH3 domain; GRB2-1, ITC, ref [79]): 117 µM

APPLPPRNRPRL [published peptide APP12]
Kd (SRC SH3 domain; Table S4, ref [23]): 1.2 µM

RAPTMPPPLPP [published 3BP-1 peptide]
Kd (ABL1 SH3 domain): 34 µM

NRMYPPPPPALP [published N-WASP peptide]
Kd (NCK1-3 SH3 domain): > 1 µM

VSLARRPLPPLP [published peptide VSL12]
Kd (SRC SH3 domain; Table S4, ref [23]): 0.45 µM

AAPVPPPVPPRRRP [published SOS1 peptide]
Kd (PLCG1 SH3 domain): 0.2 µM

QPPSNPPPRPPAEARKKPSE [published p22phox peptide]
Kd [3]: 0.64 µM

PVPPPVPPRRRP [published SOS1 peptide]
Kd (GRB2-1 SH3 domain; GRB2-1, ITC, ref [78]): 38.6 µM
Kd (GRB2-1 SH3 domain; GRB2-1, NMR, ref [47]): 37 µM
Kd (GRB2-2 SH3 domain; GRB2-2, ITC, ref [78]): 117 µM
Kd (GRB2-2 SH3 domain; GRB2-2, NMR, ref [47]): 142 µM

APTYSPPPPP
Kd (ABL1 SH3 domain): 0.4 µM

TAAPPPPPPSRP [published N-WASP peptide]
Kd (NCK1-1 SH3 domain): > 1000 µM

NENEDKSPYPNPETTGEEDEEEPEMPVGPRPRPLSELHLKEKAVPMPE [published CaV1.2 peptide]
Kd (STAC2 SH3 domain): 19.3 µM

NVNEVKDPYPSADFPGDDEEDEPEIPLSPRPRPLAELQLKEKAVPIPE [published CaV1.1 peptide]
Kd (STAC1 SH3 domain): 0.78 µM
Kd (STAC2 SH3 domain): 1.85 µM

PAPSIDRSTKPPL [published SLP-76 peptide]
Kd (GRAP2-2 SH3 domain; ref [55]): 0.181 µM
Kd (GRB2-2 SH3 domain; GRB2-2, ITC, ref [55]): 9.7 µM

HSKRPLPPLPSL [published peptide PD1R]
Kd (p85A SH3 domain): 40 µM

PSPHGTRRHLPSPP [published SOS1 peptide]
Kd (GRB2-1 SH3 domain; GRB2-1, NMR, ref [47]): 208 µM

VAVPPPPPNRMY [published N-WASP peptide]
Kd (NCK1-2 SH3 domain): 199 µM
Kd (NCK1-3 SH3 domain): 1 µM

EETAPPVIAPRPDHTKSIYTRSVI [published PAK2 peptide]
Kd ([4]; Table S4, ref [34]): 1.05 µM

LRRQAPPPPPPS [published N-WASP peptide]
Kd (NCK1-1 SH3 domain): > 1000 µM

IAGPPVPPRQST [published SOS1 peptide]
Kd (GRB2-1 SH3 domain; GRB2-1, ITC, ref [79]): 82 µM

AAIAGPPVPPRQST [published SOS1 peptide]
Kd (PLCG1 SH3 domain): 0.28 µM

PPVPNPDYEPIR [published CD3ε peptide]
Kd (EPS8L1 SH3 domain): 24 µM

APSIDRSTKPP [published SLP-76 peptide]
Kd (GRAP2-2 SH3 domain; ref [55]): 0.675 µM

AAESPPLLPPREPV [published SOS1 peptide]
Kd (PLCG1 SH3 domain): 0.7 µM

PPRPLPVAPGSSKA [published PI3K-p85a peptide]
Kd (FYN SH3 domain): 0.05 mM

RLPLRPPLPHTS [published synthetic peptide (SORBS2-1 ligand)]
Kd (SORBS2-1 SH3 domain): 121 µM

PPRPTPVAPGSSKA [published PI3K-p85a peptide]
Kd (FYN SH3 domain): 0.3 mM

RALPPLPRY [published synthetic peptide (SRC ligand)]
Kd (SRC SH3 domain; Table S4, ref [62]): 7.8 µM

PSIDRSTKP [published SLP-76 peptide]
Kd (GRAP2-2 SH3 domain; ref [57]): 30 µM

APTYPPPAPP
Kd (ABL1 SH3 domain): 5 µM

AADSPPAIPPRQPT [published SOS1 peptide]
Kd (PLCG1 SH3 domain): 0.4 µM

PKPLPRFPKK [published SOS1 peptide]
Kd (GRB2-1 SH3 domain; GRB2-1, NMR, ref [47]): 250 µM

YEVPPPVPPRRR [published SOS1 peptide]
Kd (CRK-1 SH3 domain [2]; ref [17]): 6 µM
Kd (SRC SH3 domain; Table S4, ref [17]): 25 µM
Kd (GRB2-1 SH3 domain; GRB2-1, FL, ref [17]): 5 µM
